Reference: ChEMBL document CHEMBL1132434, “Antitumor benzothiazoles. 8. Synthesis, metabolic formation, and biological properties of the C- and N-oxidation products of antitumor 2-(4-aminophenyl)benzothiazoles” (J Med Chem, 1999)

Assays:
MCF7 [1] = assay: In vitro cytotoxicity against MCF-7 human mammary carcinoma cells; assay type: functional, cell-based
MDA-N = assay: Growth inhibition of the MDA-N Breast cancer cell line for 2-day in vitro assay.; assay type: functional; details: Homo sapiens, 48 h
SK-OV-3 = assay: Growth inhibition of the SK-OV-3 Ovarian cancer cell line for 2-day in vitro assay.; assay type: functional; details: Homo sapiens, SK-OV-3, 48 h
CCRF-CEM = assay: Growth inhibition of the CCRF-CEM leukemia cell line for 2-day in vitro assay.; assay type: functional; details: Homo sapiens, 48 h
NCI-H522 = assay: Growth inhibition of the NCI-H522 non-small cell lung cancer cell line for 2-day in vitro assay.; assay type: functional; details: Homo sapiens, NCI-H522, 48 h
T47D = assay: Growth inhibition of the T-47D Breast cancer cell line for 2-day in vitro assay.; assay type: functional; details: Homo sapiens, 48 h
K562 = assay: Growth inhibition of the K-562 leukemia cell line for 2-day in vitro assay.; assay type: functional; details: Homo sapiens, K562, 48 h
NCI/ADR-RES = assay: Growth inhibition of the NCI/ADR-RES Breast cancer cell line for 2-day in vitro assay.; assay type: functional; details: Homo sapiens, 48 h
M14 = assay: Growth inhibition of the M14 Melanoma cancer cell line for 2-day in vitro assay.; assay type: functional; details: Homo sapiens, M14, 48 h
BT-549 = assay: Growth inhibition of the BT-549 Breast cancer cell line for 2-day in vitro assay.; assay type: functional; details: Homo sapiens, BT-549, 48 h
NCI-H23 = assay: Growth inhibition of the NCI-H23 non-small cell lung cancer cell line for 2-day in vitro assay.; assay type: functional; details: Homo sapiens, NCI-H23, 48 h
NCI-H322M = assay: Growth inhibition of the NCI-H322M non-small cell lung cancer cell line for 2-day in vitro assay.; assay type: functional; details: Homo sapiens, 48 h
SK-MEL-28 = assay: Growth inhibition of the SK-MEL-28 Melanoma cancer cell line for 2-day in vitro assay.; assay type: functional; details: Homo sapiens, SK-MEL-28, 48 h
MDA-MB-231 = assay: Growth inhibition of the […] Breast cancer cell line for 2-day in vitro assay.; assay type: functional; details: Homo sapiens, MDA-MB-231, 48 h
NCI-H460 = assay: Growth inhibition of the NCI-H460 non-small cell lung cancer cell line for 2-day in vitro assay.; assay type: functional; details: Homo sapiens, NCI-H460, 48 h
OVCAR-4 = assay: Growth inhibition of the OVCAR-4 Ovarian cancer cell line for 2-day in vitro assay.; assay type: functional; details: Homo sapiens, OVCAR-4, 48 h
SK-MEL-2 = assay: Growth inhibition of the SK-MEL-2 Melanoma cancer cell line for 2-day in vitro assay.; assay type: functional; details: Homo sapiens, SK-MEL-2, 48 h
OVCAR-8 = assay: Growth inhibition of the OVCAR-8 Ovarian cancer cell line for 2-day in vitro assay.; assay type: functional; details: Homo sapiens, OVCAR-8, 48 h
EKVX = assay: Growth inhibition of the EKVX non-small cell lung cancer cell line for 2-day in vitro assay.; assay type: functional; details: Homo sapiens, 48 h
A498 = assay: Growth inhibition of the A498 Renal cancer cell line for 2-day in vitro assay.; assay type: functional; details: Homo sapiens, A498, 48 h
A549 = assay: Growth inhibition of the A549/ATCC non-small cell lung cancer cell line for 2-day in vitro assay.; assay type: functional; details: Homo sapiens, A549, 48 h
HL-60 = assay: Growth inhibition of the HL-60(TB) leukemia cell line for 2-day in vitro assay.; assay type: functional; details: Homo sapiens, HL-60, 48 h
UACC-62 = assay: Growth inhibition of the UACC-62 Melanoma cancer cell line for 2-day in vitro assay.; assay type: functional; details: Homo sapiens, UACC-62, 48 h
HCT-15 = assay: Growth inhibition of the HCT-15 colon cancer cell line for 2-day in vitro assay.; assay type: functional; details: Homo sapiens, HCT-15, 48 h
KM12 = assay: Growth inhibition of the KM12 colon cancer cell line for 2-day in vitro assay.; assay type: functional; details: Homo sapiens, KM12, 48 h
SK-MEL-5 = assay: Growth inhibition of the SK-MEL-5 Melanoma cancer cell line for 2-day in vitro assay.; assay type: functional; details: Homo sapiens, SK-MEL-5, 48 h
SF-268 = assay: Growth inhibition of the SF-268 CNS cancer cell line for 2-day in vitro assay.; assay type: functional; details: Homo sapiens, SF-268, 48 h
HCC 2998 = assay: Growth inhibition of the HCC2998 colon cancer cell line for 2-day in vitro assay.; assay type: functional; details: Homo sapiens, HCC 2998, 48 h
TK-10 = assay: Growth inhibition of the TK-10 Renal cancer cell line for 2-day in vitro assay.; assay type: functional; details: Homo sapiens, TK-10, 48 h
HT-29 = assay: Growth inhibition of the HT-29 colon cancer cell line for 2-day in vitro assay.; assay type: functional; details: Homo sapiens, HT-29, 48 h
PC-3 = assay: Growth inhibition of the PC-3 Prostate cancer cell line for 2-day in vitro assay.; assay type: functional; details: Homo sapiens, PC-3, 48 h
ACHN = assay: Growth inhibition of the ACHN Renal cancer cell line for 2-day in vitro assay.; assay type: functional; details: Homo sapiens, 48 h
MCF7 [2] = assay: Growth inhibition of the MCF-7 Breast cancer cell line for 2-day in vitro assay.; assay type: functional; details: Homo sapiens, MCF7, 48 h
MDA-MB-435 = assay: Growth inhibition of the […] Breast cancer cell line for 2-day in vitro assay.; assay type: functional; details: Homo sapiens, MDA-MB-435, 48 h
SR = assay: Growth inhibition of the SR leukemia cell line for 2-day in vitro assay.; assay type: functional; details: Homo sapiens, 48 h
Malme-3M = assay: Growth inhibition of the MALME-3M Melanoma cancer cell line for 2-day in vitro assay.; assay type: functional; details: Homo sapiens, 48 h
SNB-19 = assay: Growth inhibition of the SNB19 CNS cancer cell line for 2-day in vitro assay.; assay type: functional; details: Homo sapiens, SNB-19, 48 h
RXF 393 = assay: Growth inhibition of the RXF-393 Renal cancer cell line for 2-day in vitro assay.; assay type: functional; details: Homo sapiens, RXF 393, 48 h
HOP-62 = assay: Growth inhibition of the HOP-62 non-small cell lung cancer cell line for 2-day in vitro assay.; assay type: functional; details: Homo sapiens, HOP-62, 48 h
SN12C = assay: Growth inhibition of the SN12C Renal cancer cell line for 2-day in vitro assay.; assay type: functional; details: Homo sapiens, 48 h
HCT-116 = assay: Growth inhibition of the HCT116 colon cancer cell line for 2-day in vitro assay.; assay type: functional; details: Homo sapiens, HCT-116, 48 h
MOLT-4 = assay: Growth inhibition of the MOLT-4 leukemia cell line for 2-day in vitro assay.; assay type: functional; details: Homo sapiens, MOLT-4, 48 h
SNB-75 = assay: Growth inhibition of the SNB-75 CNS cancer cell line for 2-day in vitro assay.; assay type: functional; details: Homo sapiens, SNB-75, 48 h
NCI-H226 = assay: Growth inhibition of the NCI-H226 non-small cell lung cancer cell line for 2-day in vitro assay.; assay type: functional; details: Homo sapiens, NCI-H226, 48 h
U-251 = assay: Growth inhibition of the U251 CNS cancer cell line for 2-day in vitro assay.; assay type: functional; details: Homo sapiens, U-251, 48 h
UACC-257 = assay: Growth inhibition of the UACC-257 Melanoma cancer cell line for 2-day in vitro assay.; assay type: functional; details: Homo sapiens, UACC-257, 48 h
COLO 205 = assay: Growth inhibition of the COLO-205 colon cancer cell line for 2-day in vitro assay.; assay type: functional; details: Homo sapiens, COLO 205, 48 h
Hs-578T = assay: Growth inhibition of the Hs 578.T Breast cancer cell line for 2-day in vitro assay.; assay type: functional; details: Homo sapiens, 48 h
SF-539 = assay: Growth inhibition of the SF-539 CNS cancer cell line for 2-day in vitro assay.; assay type: functional; details: Homo sapiens, SF-539, 48 h
SF-295 = assay: Growth inhibition of the SF-295 CNS cancer cell line for 2-day in vitro assay.; assay type: functional; details: Homo sapiens, SF-295, 48 h
SW-620 = assay: Growth inhibition of the SW-620 colon cancer cell line for 2-day in vitro assay.; assay type: functional; details: Homo sapiens, SW-620, 48 h
DU-145 = assay: Growth inhibition of the DU-145 Prostate cancer cell line for 2-day in vitro assay.; assay type: functional; details: Homo sapiens, DU-145, 48 h
LOX IMVI = assay: Growth inhibition of the LOX IMVI Melanoma cancer cell line for 2-day in vitro assay.; assay type: functional; details: Homo sapiens, 48 h
UO-31 = assay: Growth inhibition of the UO-31 Renal cancer cell line for 2-day in vitro assay.; assay type: functional; details: Homo sapiens, UO-31, 48 h
786-0 = assay: Growth inhibition of the 786-O Renal cancer cell line for 2-day in vitro assay.; assay type: functional; details: Homo sapiens, 786-0, 48 h

Nc1ccc(-c2nc3ccccc3s2)cc1I
IC50 (MCF7 [1]): < 0.001 µM

CC(=O)Nc1ccc(-c2nc3ccc(O)cc3s2)cc1Cl
IC50 (MCF7 [1]): 71.2 µM

Cc1cc(-c2nc3cc(O)ccc3s2)ccc1N
IC50 (MCF7 [1]): 78.7 µM

CC(=O)Nc1ccc(-c2nc3cccc(O)c3s2)cc1C
IC50 (MCF7 [1]): 48.2 µM

CC(=O)ON(C(C)=O)c1ccc(-c2nc3ccccc3s2)cc1
IC50 (MCF7 [1]): < 0.001 µM

Nc1ccc(-c2nc3c(O)cccc3s2)cc1
IC50 (MCF7 [1]): > 100 µM

Cc1cc(-c2nc3cccc(O)c3s2)ccc1N
IC50 (MCF7 [1]): 90.8 µM

Cc1cc(-c2nc3ccccc3s2)ccc1N
GI50 (MDA-N): 97.7 µM
GI50 (SK-OV-3): > 100 µM
GI50 (CCRF-CEM): 6.46 µM
GI50 (NCI-H522): 32.4 µM
GI50 (T47D): 0.107 µM
GI50 (K562): 60.3 µM
GI50 (NCI/ADR-RES): 93.3 µM
GI50 (M14): 57.5 µM
GI50 (BT-549): 66.1 µM
GI50 (NCI-H23): 58.9 µM
GI50 (NCI-H322M): 43.7 µM
GI50 (SK-MEL-28): > 100 µM
GI50 (MDA-MB-231): 66.1 µM
IC50 (MCF7 [1]): < 0.001 µM
GI50 (NCI-H460): 53.7 µM
GI50 (OVCAR-4): 0.55 µM
GI50 (SK-MEL-2): > 100 µM
GI50 (OVCAR-8): > 100 µM
GI50 (EKVX): 34.7 µM
GI50 (A498): 42.7 µM
GI50 (A549): 28.8 µM
GI50 (HL-60): 8.71 µM
GI50 (UACC-62): 70.8 µM
GI50 (HCT-15): 47.9 µM
GI50 (KM12): > 100 µM
GI50 (SK-MEL-5): 21.9 µM
GI50 (SF-268): > 100 µM
GI50 (HCC 2998): 0.251 µM
GI50 (TK-10): 0.186 µM
GI50 (HT-29): 29.5 µM
GI50 (PC-3): 31.6 µM
GI50 (ACHN): 51.3 µM
GI50 (MCF7 [2]): 0.0316 µM
GI50 (MDA-MB-435): 79.4 µM
GI50 (SR): 17.4 µM
GI50 (Malme-3M): > 100 µM
GI50 (SNB-19): > 100 µM
GI50 (RXF 393): 67.6 µM
GI50 (HOP-62): > 100 µM
GI50 (SN12C): 50.1 µM
GI50 (HCT-116): 43.7 µM
GI50 (MOLT-4): 19.5 µM
GI50 (SNB-75): 33.1 µM
GI50 (NCI-H226): 0.355 µM
GI50 (U-251): 66.1 µM
GI50 (UACC-257): 74.1 µM
GI50 (COLO 205): 51.3 µM
GI50 (Hs-578T): > 100 µM
GI50 (SF-539): > 100 µM
GI50 (SF-295): 64.6 µM
GI50 (SW-620): > 100 µM
GI50 (DU-145): 61.7 µM
GI50 (LOX IMVI): 37.2 µM
GI50 (UO-31): 6.46 µM
GI50 (786-0): > 100 µM

CC(=O)Nc1ccc(-c2nc3c(O)cccc3s2)cc1C
IC50 (MCF7 [1]): 33 µM

CC(=O)Nc1ccc(-c2nc3ccc(O)cc3s2)cc1C
IC50 (MCF7 [1]): 46.1 µM

CC(=O)Nc1ccc(-c2nc3cc(O)ccc3s2)cc1Cl
IC50 (MCF7 [1]): 31 µM

Nc1ccc(-c2nc3cc(O)ccc3s2)cc1Cl
IC50 (MCF7 [1]): 60.6 µM

Nc1ccc(-c2nc3ccc(O)cc3s2)cc1Cl
IC50 (MCF7 [1]): 54.5 µM

Cc1cc(-c2nc3c(O)cccc3s2)ccc1N
IC50 (MCF7 [1]): > 100 µM

Nc1ccc(-c2nc3ccccc3s2)cc1Cl
IC50 (MCF7 [1]): < 0.001 µM

Nc1ccc(-c2nc3ccccc3s2)cc1CO
IC50 (MCF7 [1]): 0.006 µM

Nc1ccc(-c2nc3ccc(O)cc3s2)cc1
IC50 (MCF7 [1]): 21.6 µM

Nc1ccc(-c2nc3ccccc3s2)cc1
IC50 (MCF7 [1]): < 0.001 µM

CC(=O)Nc1ccc(-c2nc3c(O)cccc3s2)cc1Cl
IC50 (MCF7 [1]): 56.8 µM

CC(=O)ON(C(C)=O)c1ccc(-c2nc3ccccc3s2)cc1C
IC50 (MCF7 [1]): 0.055 µM

Nc1ccc(-c2nc3c(O)cccc3s2)cc1Cl
IC50 (MCF7 [1]): 61.4 µM

CC(=O)Nc1ccc(-c2nc3ccccc3s2)cc1O
IC50 (MCF7 [1]): 9 µM

Nc1ccc(-c2nc3cc(O)ccc3s2)cc1
IC50 (MCF7 [1]): > 100 µM

CC(=O)Nc1ccc(-c2nc3cc(O)ccc3s2)cc1C
IC50 (MCF7 [1]): 72.5 µM
